Test results from patent US10882854B2, “Heterocyclic compounds and use thereof” (National Health Research Institutes, priority 2017, dated 2021).
pEC50, pIC50: −log10 of the molar value. “Also recorded” adds a separate entry of the source.

How the values were obtained:
[1] = tested on: HCC cell line HCA-1; assay: Syngeneic orthotopic hepatocellular carcinoma (HCC) mouse model; assay type: in vivo, C3H mice; settings: for tumor size: C3H mice with orthotopic HCA-1, 10 mg/kg/day by osmotic pump for two weeks, combined with sorafenib 40 mg/kg daily, control about 400 mm^3
Method: The efficacy of a compound of Formula (I), i.e., Compounds 42, in treating HCC was assessed using a syngeneic mouse model as follows.
C3H mouse-derived HCC cell line HCA-1 was used. HCA-1 cells were orthotopically implanted in C3H mice for 10 days. The mice were subsequently treated with sorafenib (a small molecule drug for treating hepatocellular carcinoma; 40 mg/kg) daily for two weeks or treated with vehicle (PBS) alone as a control. Tested compounds, e.g., AMD3100 (10 mg/kg/day) and Compound 42 (10 mg/kg/day), were each administered continuously to those mice treated with sorafenib using an Alzet osmotic pump (DURECT Corporation, Cupertino, Calif.) for two weeks.

[2] = target: T1, human CXCR4 (Homo sapiens, UniProt P61073); assay: Inhibition of 125I-CXCL12 radioligand binding, membranes of human CXCR4-transfected HEK293 cells; settings: 0.16 nM 125I-CXCL12, 60 min at 30 °C, read-out: concentration required to inhibit binding of 125I-CXCL12 to CXCR4 by 50% (IC50)
T1 construct: expressed in transfected cells; host or cells: HEK293 cells (membranes)
T1 sequence (P61073 whole entry): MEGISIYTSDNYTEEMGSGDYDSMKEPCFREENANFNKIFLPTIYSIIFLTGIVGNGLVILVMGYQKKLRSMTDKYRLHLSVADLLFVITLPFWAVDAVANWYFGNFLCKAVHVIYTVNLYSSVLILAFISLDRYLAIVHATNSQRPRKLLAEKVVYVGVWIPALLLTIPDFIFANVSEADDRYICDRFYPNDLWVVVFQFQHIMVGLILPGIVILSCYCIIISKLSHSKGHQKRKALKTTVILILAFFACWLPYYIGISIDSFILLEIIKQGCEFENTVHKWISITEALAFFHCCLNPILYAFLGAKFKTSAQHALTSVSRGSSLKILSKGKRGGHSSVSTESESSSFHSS
Method: Binding competition between the compounds of Formula (I) and human CXCL12 was assessed using a radioligand binding assay as described below.
Membranes (2-4 μg) prepared from human CXCR4-transfected HEK293 cells in 40 μL of assay buffer (50 mM HEPES-NaOH, pH 7.4, 100 mM NaCl, 5 mM MgCl2, 1 mM CaCl2, 0.5% bovine serum albumin) were incubated with 20 μL of radio-labeled ^125I-CXCL12 (0.16 nM) and 20 μL of a test compound in an assay plate (Costar Corning, Cambridge, Mass.). After 60 minutes at 30° C., the incubation was terminated by transferring the resulting reaction mixture to a 96-well GF/B filter plate (Millipore Corp., Billerica, Mass.) and filtered via a manifold. The plate was washed with 100 μL of ice-cold wash buffer (50 mM HEPES-NaOH, pH 7.4, 100 mM NaCl) four times. The radioactivity bound to the filter was measured by Topcount (PerkinElmer Inc., Waltham, Mass.).

[3] = tested on: T-cell acute lymphoblastic leukemia (CCRF-CEM) cells; assay: Inhibition of CXCL12-induced chemotaxis in lymphoblastic leukemia cells; assay type: cell-based; settings: Homo sapiens, CXCL12 10 nM, 2.5 h at 37 °C, read-out: concentration required to inhibit chemotaxis by 50% (EC50)
Method: The response of cancer cells to compounds of Formula (I) was evaluated using the chemotaxis assay as set forth below.
T-cell acute lymphoblastic leukemia (CCRF-CEM) cells in Roswell Park Memorial Institute medium (RPMI) 1640 supplemented with 10% […] were incubated with 250 μL of a test compound. The assay was performed using Millicell Hanging Cell Culture Inserts (pore size 5 μm; 24-well plate; Millipore, Bedford, Mass., USA). After 10 minutes at 37° C., 250 μL of cells pre-incubated with a test compound were plated per well in the upper chambers of the inserts at a density of 2.5×10^5 cells/well. 300 μL/well medium containing CXCL12 (10 nM) and a test compound were plated in the lower chamber of the insert. After 2.5 h at 37° C., cells in both chambers of inserts were measured by flow cytometry (Guava Technologies, Hayward, Calif., USA).

[4] = tested on: acute Kidney Injury (AKI) model; assay: Ischemia-reperfusion acute kidney injury (AKI) model in rats; assay type: in vivo, male Sprague-Dawley rats; settings: 6 mg/Kg subcutaneous 40 min before AKI, blood 24 h after induction of AKI
Method: The efficacy of five compounds of Formula (I) in treating Ischemia-Reperfusion injury was assessed using both an acute kidney injury model, an ischemic stroke model, and a limb ischemia model. These five compounds are Compounds 13, 35, 40, 45, and 46. In an acute Kidney Injury (AKI) model, each of the five compounds was dissolved in saline to form a solution. The solution was administered to male Sprague-Dawley rats (National Laboratory Animal Center, Taipei, Taiwan) subcutaneously at a dosage of 6 mg/Kg. 40 minutes after the subcutaneous injection, AKI was induced in the rats by clamping their bilateral renal vein and artery for one hour followed by releasing the vessel clips to allow 24-h reperfusion. Whole blood was collected at 24-h after induction of AKI. Blood urea nitrogen (BUN) and serum creatinine (Scr), two markers that increase upon kidney injury, were measured using a FUJI DRI-CHEM 3500s analyzer (Fujifilm, Tokyo, Japan). Non-AKI rats and AKI rats treated with saline were used as controls.

[5] = tested on: Hematopoietic stem cells (CD34+) and endothelial progenitor cells (CD133+); assay: Mobilization of stem/progenitor cells into peripheral blood in mice; assay type: in vivo, C57BL/6 male mice
[6] = tested on: mild traumatic brain injury (mTBI) model; assay: Mild traumatic brain injury (mTBI) model in mice; assay type: in vivo, Adult CD1 mice; settings: CD1 mice, versus vehicle
[7] = tested on: rat ischemic myocardial infarction model; assay: Rat ischemic myocardial infarction model; assay type: in vivo, Male SD rats; settings: SD rats; 5 mg/kg single subcutaneous injection 30 minutes before LAD ligation; 24 hours; versus saline
Method: The efficacy of a compound of Formula (I), i.e., Compound 42, in protecting against myocardial infarction was assessed in a rat ischemic myocardial infarction model as follows.
Male SD rats (400-500 gram each) received a single subcutaneous injection of Compound 42 at a dosage of 5 mg/kg or an equal volume of saline (n=18-20 per group) 30 minutes before surgery was conducted. Left anterior descending artery (LAD) was transiently ligated using a 6-0 nylon suture for a 30-minute ischemic period in this surgery. After 24 hours, each rat was anesthetized and the LAD was ligated again. 2 mL of 5% Evan's Blue was then injected into the tail vein and allowed to perfuse for 2 minutes. The heart was immediately excised, washed with saline, froze at −80° C., and cut in semi-frozen state into 2-mm thick sections. Slices were then incubated in 1% tri-phenyltetrazolium chloride solution for 10 minutes at 37° C. and fixed in 10% formalin. Infarct size was recorded after staining.

| SMILES | pIC50 [2] | pEC50 [3] | also measured |
| --- | --- | --- | --- |
| c1cc(CN2CCCNCCNCCCNCC2)ccc1CN1CCCNCCNCCCNCC1 [AMD3100, reference compound] | – | – | tumor size [1]: about 250 mm^3 |
| N[C@@H](CCC(=O)N1CCC(Nc2nc(NCc3coc(CCCNCCCNC4CCCCC4)n3)nc3ccccc23)CC1)C(=O)O [Compound 30] | > 7.30 | > 7.30 | – |
| N[C@@H](CCC(=O)N1CCC(Nc2nc(NCc3nc(CCCNCCCNC4CCCCC4)cs3)nc3ccccc23)CC1)C(=O)O [Compound 31] | 7.00 to 7.30 | > 7.30 | – |
| N[C@@H](CCC(=O)N1CCC(Nc2nc(NCc3nnc(CCCNCCCNC4CCCCC4)[nH]3)nc3ccccc23)CC1)C(=O)O [Compound 38] | 7.00 to 7.30 | > 7.30 | – |
| Cc1cc(NC2CCN(C(=O)CCNCC(=O)O)CC2)nc(NCc2coc(CCCNCCCNC3CCCCC3)n2)n1 [Compound 40] | > 7.30 | > 7.30 | hematopoietic stem cell mobilization combined with G-CSF (CFU-GM numbers) [5]: mobilize hematopoietic stem cells synergistically; BUN level relative to that induced in saline-treated AKI rats [4]: 20%; Scr (serum creatinine) level relative to that induced in saline-treated AKI rats [4]: 36% |
| Cc1cc(NC2CCN(C(=O)CCNCC(=O)O)CC2)nc(NCc2nc(CCCNCCCNC3CCCCC3)cs2)n1 [Compound 41] | 6.00 to 7.00 | > 7.30 | – |
| Cc1cc(NC2CCN(C(=O)CCNCC(=O)O)CC2)nc(NCc2nc(CCCNCCCNC3CCCCC3)co2)n1 [Compound 42] | > 7.30 | > 7.30 | body weight loss ([1]; C3H mice with HCA-1 tumors, 10 mg/kg/day for two weeks): no significant body weight loss; tumor size [1]: about 50 mm^3; vertical activity and vertical movement time in mTBI mice ([6]; 3 mg/kg, 24 hours starting 15-minute after injury): significantly improved vertical activity; expression of inflammatory marker IBA1 in the lesioned cortex (qRTPCR) ([6]; 3 mg/kg, cortex collected day 5 after mTBI, 3 mg/kg): significantly reduced IBA1 expression; also recorded: significantly suppressed; locomotor activity after mTBI ([6]; early post-treatment given systemically after mTBI): significantly improved locomotor activity; protection of heart against ischemic damage (infarct size) [7]: protected heart against ischemic damage to a large degree |
| Cc1cc(NC2CCN(C(=O)CCNCC(=O)O)CC2)nc(NCc2nnc(CCCNCCCNC3CCCCC3)s2)n1 [Compound 45] | 7.00 to 7.30 | > 7.30 | hematopoietic stem cell mobilization combined with G-CSF (CFU-GM numbers) [5]: mobilize hematopoietic stem cells synergistically; BUN level relative to that induced in saline-treated AKI rats [4]: 11%; Scr (serum creatinine) level relative to that induced in saline-treated AKI rats [4]: 10% |
| Cc1cc(NC2CCN(C(=O)CCNCC(=O)O)CC2)nc(NCc2nnn(CCCNCCCNC3CCCCC3)n2)n1 [Compound 46] | 7.00 to 7.30 | 6.82 to 7.30 | BUN level relative to that induced in saline-treated AKI rats [4]: 22%; Scr (serum creatinine) level relative to that induced in saline-treated AKI rats [4]: 22% |
| N[C@@H](CCC(=O)NCCN1CCC(Nc2nc(NCc3coc(CCCNCCCNC4CCCCC4)n3)nc3ccccc23)CC1)C(=O)NCCP(=O)(O)O [Compound 48] | 7.00 to 7.30 | > 7.30 | – |
| N[C@@H](CCC(=O)NCCN1CCC(Nc2nc(NCc3nc(CCCNCCCNC4CCCCC4)cs3)nc3ccccc23)CC1)C(=O)NCCP(=O)(O)O [Compound 49] | 7.00 to 7.30 | > 7.30 | hematopoietic stem cell mobilization combined with G-CSF (CFU-GM numbers) [5]: mobilize hematopoietic stem cells synergistically |

Further lines, with some results ahead:

| pIC50 [2] | pEC50 [3] | SMILES | also measured |
| --- | --- | --- | --- |
| > 7.30 | > 7.30 | c1ccc2c(NC3CCNCC3)nc(NCc3nnn(CCCNCCCNC4CCCCC4)n3)nc2c1 [Compound 13] | BUN level relative to that induced in saline-treated AKI rats [4]: 25%; Scr (serum creatinine) level relative to that induced in saline-treated AKI rats [4]: 56% |
| 7.00 to 7.30 | > 7.30 | CCc1cc(NC2CCNCC2)nc(NCc2nnn(CCCNCCCNC3CCCCC3)n2)n1 [Compound 26] | – |
| > 7.30 | > 7.30 | N[C@@H](CCC(=O)N1CCC(Nc2nc(NCc3cc(CCCNCCCNC4CCCCC4)on3)nc3ccccc23)CC1)C(=O)O [Compound 29] | – |
| 7.00 to 7.30 | > 7.30 | N[C@@H](CCC(=O)N1CCC(Nc2nc(NCc3nc(CCCNCCCNC4CCCCC4)co3)nc3ccccc23)CC1)C(=O)O [Compound 32] | – |
| 7.00 to 7.30 | 6.82 to 7.30 | N[C@@H](CCC(=O)N1CCC(Nc2nc(NCc3noc(CCCNCCCNC4CCCCC4)n3)nc3ccccc23)CC1)C(=O)O [Compound 33] | – |
| 7.00 to 7.30 | 6.82 to 7.30 | N[C@@H](CCC(=O)N1CCC(Nc2nc(NCc3nnc(CCCNCCCNC4CCCCC4)o3)nc3ccccc23)CC1)C(=O)O [Compound 34] | – |
| 7.00 to 7.30 | > 7.30 | N[C@@H](CCC(=O)N1CCC(Nc2nc(NCc3nnc(CCCNCCCNC4CCCCC4)s3)nc3ccccc23)CC1)C(=O)O [Compound 35] | BUN level relative to that induced in saline-treated AKI rats [4]: 15%; Scr (serum creatinine) level relative to that induced in saline-treated AKI rats [4]: 22% |
| 7.00 to 7.30 | > 7.30 | N[C@@H](CCC(=O)N1CCC(Nc2nc(NCc3nnn(CCCNCCCNC4CCCCC4)n3)nc3ccccc23)CC1)C(=O)O [Compound 37] | – |
| 7.00 to 7.30 | > 7.30 | Cc1cc(NC2CCN(C(=O)CCNCC(=O)O)CC2)nc(NCc2cc(CCCNCCCNC3CCCCC3)on2)n1 [Compound 39] | – |
| 7.00 to 7.30 | > 7.30 | N[C@@H](CCC(=O)NCCN1CCC(Nc2nc(NCc3cc(CCCNCCCNC4CCCCC4)on3)nc3ccccc23)CC1)C(=O)NCCP(=O)(O)O [Compound 47] | – |
| 7.00 to 7.30 | 6.82 to 7.30 | N[C@@H](CCC(=O)NCCN1CCC(Nc2nc(NCc3nc(CCCNCCCNC4CCCCC4)co3)nc3ccccc23)CC1)C(=O)NCCP(=O)(O)O [Compound 50] | hematopoietic stem cell mobilization combined with G-CSF (CFU-GM numbers) [5]: mobilize hematopoietic stem cells synergistically |
| > 7.30 | > 7.30 | O=C(O)CNCCCC(=O)N1CCC(Nc2nc(NCc3nnn(CCCNCCCNC4CCCCC4)n3)nc3ccccc23)CC1 [Compound 59] | – |
| 7.00 to 7.30 | > 7.30 | O=C(O)CNCCC(=O)N1CCC(Nc2nc(NCc3nnn(CCCNCCCNC4CCCCC4)n3)nc3ccccc23)CC1 [Compound 61] | – |
| 7.00 to 7.30 | > 7.30 | Cc1cc(NC2CCN(C(=O)CCCNCC(=O)O)CC2)nc(NCc2nnn(CCCNCCCNC3CCCCC3)n2)n1 [Compound 62] | – |
